Experimental data: ChEMBL document CHEMBL1131727, “Synthesis and biological evaluation of alpha-mannosidase inhibitory activity of three deoxy derivatives of mannostatin A” (Bioorg Med Chem Lett, 1999)

Assay: Compound was tested for the inhibitory activity against alpha-mannosidase

Compound | IC50
OCC1NC(O)C(O)C(O)C1O (stereo not given) | 42 µM
CS[C@@H]1[C@@H](N)[C@@H](O)C[C@H]1O | 31 µM
CS[C@@H]1[C@@H](N)[C@@H](O)[C@@H](O)[C@H]1O [MANNOSTATIN A] | 0.24 µM

Other lines, results leading:

IC50 | Compound
28 µM | CS[C@H]1C[C@H](O)[C@H](O)[C@@H]1N
> 100 µM | CS[C@H]1[C@H](O)[C@H](O)C[C@@H]1N
